Measured values reported in patent publication US8669065B1, “Methods for identifying molecules that modulate lipid binding sites of ion channels” (priority 2011, dated 2014).
≈ marks a conversion by molar mass, not a printed value.

Test: physchem
Conditions: water
Description: Most native lipids have long fatty acyl side chains rendering them insoluble and difficult to work with in an aqueous environment.

solubility: 50 mM (≈ 21.2 mg/mL)
SMILES: CCCCCCCC(=O)OC[C@H](COP(=O)(O)O)OC(=O)CCCCCCC [C8-PA]
